Test results taken from patent US20250120975A1, “INTEGRIN INHIBITORS FOR TREATMENT OF PRIMARY SCLEROSING CHOLANGITIS” (Pliant Therapeutics, Inc., priority 2023, published 2025).

Test system: PCLivS from human liver tissue with biliary fibrosis (PSC, PBC)
Test: Fibrotic gene expression (NanoString) in precision cut liver slices
Type: cell-based
Settings: PCLivS from a single PSC liver, 2 days
Source text: A human liver tissue explant was obtained from a PSC patient undergoing liver transplantation.
Slicing: To slice, 8-mm cores were punctured from the liver tissue and were stored in ice cold UW solution until slicing. A tissue core was glued onto the center of the plunger of the specimen syringe for slicing. The core was embedded in 2% low gelling temperature agarose made up in milliQ water. The thickness of the slice was adjusted to 400 μm and was sectioned into oxygenated KHB occurs. The slices were stored in cold UW solution on ice until all slices were cut.
Culture: The compounds were diluted to 1000× concentration in 100% DMSO. The compounds were diluted in a medium with a final concentration of 0.1% DMSO before transferring the slices and making a fresh medium for each 24-H medium change. Before being used for slice culture, all media was equilibrated in the incubator at culture conditions for 30 minutes. After all slices have been cut, all slices were transferred to wells prefilled with oxygenated, warmed, and equilibrated WEGG. The slices were incubated for 1 hour in the incubator at a temperature of 37° C., 5% CO2, 80% 02, 100% humidity on shaking platform set at 55 rpm. After this one-hour recovery, the slices were transferred to wells prefilled with oxygenated, warmed, and equilibrated WEGG with appropriate treatments. The slices were distributed into the treatment groups to account for inter-core variability. The slices were cultured at 37° C., 80% 02, 5% CO2, 100% humidity on shaking platform set at 55 rpm. The medium was changed after 24 hours.
The slices were removed from the well and rinsed in PBS. Excess liquid was removed. The slices were transferred to a microtube pooling all three slices from the same treatment into one tube. The pooled slices were snap frozen in liquid nitrogen and placed on dry ice until all samples were collected and then transferred to −80° C. for storage. For media collection, 140 μL of medium was pooled from each well within a treatment group and transferred to a 96-well Axygen plate. After sealing the plate, spin down occurred at 4000×g for 10 minutes at 4° C. Then, 130 μL aliquots were transferred into 3 new plates. The plates were sealed and stored at −80° C.
(S)-4-((2-methoxyethyl)(4-(5,6,7,8-tetrahydro-1,8-naphthyridin-2-yl)butyl)amino)-2-(quinazolin-4-ylamino)butanoic acid was tested at 100 nM, 1 μM, and 10 μM. OCA, an FXR agonist in clinical trials for PSC, was used at 250 nM and 2.5 μM reflecting Cmax levels observed in clinical trials. An ALK5 inhibitor (R268712) was used at 1 μM (400 times its IC50 per manufacturer) to target max inhibition of the ALK5 receptor.
Methods: Lysis buffer was made with one third RLT buffer in RNAse-free water and 2 mg/mL proteinase K. About 100-200 μL lysis buffer was added to each pool of 3 liver slices. Samples were incubated at 55° C. in the bead bath for 2 hours and 45 minutes, vortexing every 30 minute. Samples were centrifuged and the supernatant aliquoted in 15 μL aliquots into 96-well Axygen plates.
Methods: nCounter PlexSet was run according to standard protocol. Briefly, probe A and probe B were diluted with TE-tween to Working Probe Pools and mixed with hybridization buffer. This master mix was added to the A-H PlexSets and mixed. Each PlexSet was added across a row to a 96 well qPCR plate and proteinase K was added to a final concentration of 2 mg/mL. Lysate from samples was added to appropriate wells and mixed. The plate was sealed, spun, and placed in thermocycler at 67° C. for 16 hours. Hybridized samples were pooled down columns and 35 μL were loaded on a Sprint Cartridge and run on the nCounter Sprint. Data analysis was performed in nSolver using background thresholding based on negative controls, positive control normalization, reference sample normalization and normalization to housekeeping genes (GUSB, HPRT1, POLR1B, RPLP0, SRFS4, and/or UBC). […]

Row | Structure (SMILES) | % Inhibition of expression COL1A1 (1 μM) [%] | % Inhibition of expression COL1A2 (1 μM) [%] | % Inhibition of expression COL1A1 (250 nM) [%] | % Inhibition of expression COL1A2 (250 nM) [%] | % Inhibition of expression COL1A1 (2.5 μM) [%] | % Inhibition of expression COL1A2 (2.5 μM) [%]
1 | Cc1cccc(-c2[nH]ncc2-c2ccc(F)c(-c3cnn(CCO)c3)c2)n1 [Alk5 Inh., reference compound] | 79 | 46 |  |  |  | 
2 | CC[C@H]1[C@@H](O)[C@@H]2[C@H](CC[C@]3(C)[C@@H]([C@H](C)CCC(=O)O)CC[C@@H]23)[C@@]2(C)CC[C@@H](O)C[C@@H]12 [OCA, obeticholic acid, reference compound] |  |  | 44 | 19 | 35 | 15
